From patent publication US20250195469A1, “COMPANION DIAGNOSTICS AND STRATEGIES FOR TREATMENT WITH AN ARYL HYDROCARBON RECEPTOR AGONIST COMPOUND” (AZORA THERAPEUTICS, INC., priority 2022, published 2025)
Where two headings read alike, the source gives them in different places. Values belong to the molecule of their own block, whether it stands above or below them.

How the values were obtained:
[1] = target: T1, AhR (Homo sapiens, UniProt P35869); experiment: Inhaled AhR antagonist combined with indirubin therapy; assay type: in vivo; settings: two weeks, with nanoparticulate indirubin
T1 construct: takes a biopsy of the treated skin from this treated spot; from tissue; host or cells: human skin biopsy, epidermal cells
T1 sequence (P35869 11-848): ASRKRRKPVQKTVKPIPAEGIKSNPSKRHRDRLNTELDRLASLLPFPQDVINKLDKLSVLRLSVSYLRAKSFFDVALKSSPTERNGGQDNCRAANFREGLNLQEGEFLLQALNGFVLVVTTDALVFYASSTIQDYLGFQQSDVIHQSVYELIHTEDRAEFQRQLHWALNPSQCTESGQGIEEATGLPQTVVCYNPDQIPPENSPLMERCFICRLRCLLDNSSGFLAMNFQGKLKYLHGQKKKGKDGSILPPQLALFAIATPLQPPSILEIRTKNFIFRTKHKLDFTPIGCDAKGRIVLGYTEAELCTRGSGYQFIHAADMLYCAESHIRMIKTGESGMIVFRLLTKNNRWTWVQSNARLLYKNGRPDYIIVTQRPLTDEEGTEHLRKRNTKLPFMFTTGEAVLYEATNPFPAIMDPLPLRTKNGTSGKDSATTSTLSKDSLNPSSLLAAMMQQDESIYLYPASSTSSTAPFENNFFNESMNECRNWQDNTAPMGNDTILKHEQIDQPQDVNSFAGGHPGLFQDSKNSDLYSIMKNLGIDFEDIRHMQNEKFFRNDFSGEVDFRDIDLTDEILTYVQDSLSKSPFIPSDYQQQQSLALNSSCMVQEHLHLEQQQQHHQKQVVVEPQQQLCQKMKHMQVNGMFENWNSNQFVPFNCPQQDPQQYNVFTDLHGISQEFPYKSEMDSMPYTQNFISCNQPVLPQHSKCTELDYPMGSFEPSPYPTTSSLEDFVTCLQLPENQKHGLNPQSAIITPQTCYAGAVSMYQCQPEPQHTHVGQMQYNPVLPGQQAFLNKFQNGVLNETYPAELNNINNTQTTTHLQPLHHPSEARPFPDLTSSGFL
From the text: During the course of therapy with a nanoparticulate form of synthetic indirubin for the treatment of gastritis, a patient complains of ad adverse event, in this case shortness of breath and difficulty doing physical exercise. The patient is responding well to therapy but the doctor is concerned about possible development of additional PAH-like symptoms. The doctor maintains the indirubin therapy but prescribes the patient an inhalable AhR antagonist, in this case inhaled 1-Methyl-N-[2-methyl-4-[2-(2-methylphenyl)diazenyl]phenyl-1H-pyrazole-5-carboxamide (CH223191) that is designed to reduce AhR signaling in the lung epithelium.

[2] = test system: PBMCs; experiment: EROD activity of PBMCs stimulated with AhR agonist; assay type: cell-based, human; settings: patient PBMCs, 24 hours, compared to healthy normal PBMCs
Description: Prior to starting therapy with a topical AhR agonist for the treatment of pustular psoriasis, a blood sample is collected. PBMCs are processed and sent out fresh for stimulation with and without the AhR agonist FICZ. After 24 hours, EROD activity is measured. […] The ratio of stimulated to unstimulated EROD activity may be indicative of baseline AhR activity and responsiveness to AhR therapy. […] Based on the data, the patient's dermatologist prescribes the topical AhR agonist for the treatment of pustular psoriasis.

[3] = test system: guinea pigs; settings: cited from earlier work
[4] = test system: hamsters; settings: cited from earlier work
[5] = test system: mice; settings: chronic dosing, only starting after 15 days of exposure; cited from earlier work
[6] = test system: ALT and AST; experiment: Liver enzymes after indigo modified release tablet, with or without lead in dose; assay type: in vivo, human
Description: As such, a product label identified a clinical regiment whereby a lead in dose of 5 mg indigo is administered once daily for 2 consecutive days prior to beginning the 50 mg therapeutic dose.

[7] = Description: A patient with pouchitis is being treated with an oral suspension containing 10 mg indirubin twice daily. Plasma samples are taken weekly during the first 6 weeks of therapy and sent out for PK analysis for indirubin levels. […] The physician reduces the dose to 2.5 mg once per day.
[8] = test system: CYP1A1
Description: (§1) A patient with Crohn's disease is given 50 mg of indirubin in an immediate release tablet once daily. A diagnostic is set to evaluate the mRNA levels of both CYP1A1 and CYP1A2 in the blood using RT-PCR of peripheral blood mononuclear cell mRNA every two weeks.

[9] = test system: CYP1A2
Description: as §1

[10] = test system: relapsing-remitting multiple sclerosis patients; settings: low dose (0.6 mg/day); cited from earlier work
[11] = Echocardiogram monitoring during linomide therapy (REMS); assay type: in vivo, human; settings: oral tablet, after 6 months
From the text: Based on the label of an orally administered tablet containing linomide, a patient must enroll in a risk evaluation and mitigation strategy (REMS). In the case of this drug, patients must comply with ongoing echocardiogram monitoring requirements. […] The prescribing physician evaluates the echocardiogram an decides the patient should be discontinued. The physician passes this information along to the REMS program by logging the data into a secure server. Subsequently the server alerts the patient and the prescribing pharmacy that the patient is no longer eligible to refill their linomide tablet prescription.

[12] = test system: multiple sclerosis patients; settings: Phase 3; cited from earlier work
[13] = AhR agonist metabolism in blood microsomes, AhR-luciferase reporter readout; assay type: in vitro ADME, human; settings: 10 nM, 24 hours
Description: Prior to beginning therapy with oral meisoindigo for the treatment of rheumatoid arthritis, a physician orders a diagnostic to assess ability of the subject to adequately metabolize meisoindigo. Blood microsomes are extracted from the subject and incubated in medium containing 10 nM meisoindigo for 24 hours. The microsomes are removed via ultra-centrifugation and the remaining medium is added to a reporter cell line (such as product IB06001 sold by Indigo Biosciences) that expresses luciferase behind the promoter for human CYP1A1 and which can detect AhR agonist activity. […] Based on the results of this diagnostic, the physician believes the patient has a defect making them a poor metabolizer of meisoindigo and recommends against the use of meisoindigo due to the possibility of development of adverse events.

[14] = Headaches with delayed release indirubin, omeprazole lead in dose; settings: 20 mg delayed-release capsule before delayed release indirubin, first week
[15] = test system: plaque psoriasis patients; settings: phase 3, plaque psoriasis patients; cited from earlier work
[16] = 50 mg immediate release tablet once daily, after two weeks
[17] = two weeks after reduction to 10 mg every other day

SMILES: Cc1ccccc1N=Nc1ccc(NC(=O)c2ccnn2C)c(C)c1 [CH223191]
shortness of breath after combination therapy [1]: no longer has shortness of breath

SMILES: O=Cc1c2c(cc3c1=Nc1ccccc1-3)=Nc1ccccc1-2 [FICZ, 6-formylindolo[3,2−b]carbazole]
EROD activity after stimulation [2]: high EROD activity

SMILES: Clc1cc2c(cc1Cl)Oc1cc(Cl)c(Cl)cc1O2 [TCDD, 2,3,7,8-tetrachlorodibenzo-p-dioxin]
LD50 [3]: 1 µg/kg | LD50 [4]: over 5000 μg/kg | mean arterial blood pressure [5]: increased

SMILES: O=C1/C(=C2\Nc3ccccc3C2=O)Nc2ccccc21 [indigo]
patients with the ALT and AST increase ([6]; 50 mg twice daily modified release tablet, 2 days): 50% | increase in ALT and AST ([6]; 50 mg twice daily modified release tablet, 2 days following administration): 5 × | changes in ALT or AST levels ([6]; lead in dose 5 mg once daily for 2 days before 50 mg therapeutic dose, 2 days following therapeutic dosing): did not produce any notable changes

plasma indirubin level ([7]; week 1, oral suspension 10 mg twice daily): 5 ng/mL | plasma indirubin level ([7]; week 2, oral suspension 10 mg twice daily): 25 ng/mL | plasma indirubin level ([7]; week 3, 2.5 mg once per day): 2 ng/mL | plasma indirubin level ([7]; week 4, 2.5 mg once per day): 3 ng/mL | plasma indirubin level ([7]; week 5, 2.5 mg once per day): 2 ng/mL | plasma indirubin level ([7]; week 6, 2.5 mg once per day): 3 ng/mL | increase of CYP1A1 mRNA in PBMCs [8, 16]: 12 × | increase of CYP1A1 mRNA in PBMCs compared to baseline [8, 17]: 15 × | increase of CYP1A2 mRNA in PBMCs [9, 16]: 3 × | increase of CYP1A2 mRNA in PBMCs compared to baseline [9, 17]: 6 ×
SMILES: O=C1Nc2ccccc2/C1=C1/Nc2ccccc2C1=O [indirubin]

SMILES: CCN(C(=O)c1c(O)c2c(Cl)cccc2n(C)c1=O)c1ccccc1 [laquinimod]
trial's primary endpoint [10]: failed to meet the trial's primary endpoint

echocardiogram findings [11]: signs of valvar heart disease
SMILES: CN(C(=O)c1c(O)c2ccccc2n(C)c1=O)c1ccccc1 [linomide, linomide (roquinimex)]
toxicity leading to termination of development [12]: cardiovascular toxicity, specifically pleuritis, pericarditis, and chest pain

fraction of added compound metabolized ([13]; microsomes from a healthy normal individual): 99% | metabolism in presence of microsomes ([13]; patient blood microsomes): little to no meisoindigo was metabolized
SMILES: CN1C(=O)/C(=C2/C(=O)Nc3ccccc32)c2ccccc21 [meisoindigo]

effect of lead in dose on headaches [14]: reduce the development of headaches
SMILES: COc1ccc2[nH]c([S+]([O-])Cc3ncc(C)c(OC)c3C)nc2c1 (stereo not shown) [omeprazole]

SMILES: CC(C)c1c(O)cc(/C=C/c2ccccc2)cc1O [tapinarof]
patients who developed inflammation of the hair follicle (folliculitis) [15]: Over 20%
